Article PMC6418145 (Scientific Reports, 2019)

Columns and labels:
[1] = target: T1, hM4Di (Homo sapiens, UniProt P08173, A203G/Y113C); assay: FLIPR Ca2+ oscillation assay in primary rat neuronal cultures transduced with hM4Di; format: cell-based
T1 construct: expressed in transfected cells; host or cells: primary cortical neurons of embryonic (E18) Sprague-Dawley rats, AAV-transduced
T1 sequence (P08173 1-479 Y113C/A203G): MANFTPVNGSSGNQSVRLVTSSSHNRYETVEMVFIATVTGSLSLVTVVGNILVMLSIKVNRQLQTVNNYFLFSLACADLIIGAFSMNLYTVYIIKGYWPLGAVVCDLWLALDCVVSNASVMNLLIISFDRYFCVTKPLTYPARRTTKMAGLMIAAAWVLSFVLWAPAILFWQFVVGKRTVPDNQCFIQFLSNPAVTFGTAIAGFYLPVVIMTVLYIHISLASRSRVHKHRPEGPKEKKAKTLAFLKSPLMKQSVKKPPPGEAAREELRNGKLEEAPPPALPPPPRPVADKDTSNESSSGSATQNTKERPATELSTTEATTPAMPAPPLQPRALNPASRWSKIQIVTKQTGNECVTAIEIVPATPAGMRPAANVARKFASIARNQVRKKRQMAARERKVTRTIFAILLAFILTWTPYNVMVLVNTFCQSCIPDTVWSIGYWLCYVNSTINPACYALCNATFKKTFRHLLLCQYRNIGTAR
Description: Briefly, cortices were dissected from embryonic brains, meninges were removed, and cortices transferred into ice-cold dissociation buffer (2 mM kynurenic acid, 10 mM HEPES, 20 mM MgCl2 (Fluka, Germany) and 33.4 mM Glucose in Hank’s Balanced Salt Solution (HBSS), pH 7.4 (Gibco, Thermo Fischer Scientific, Massachusetts, USA). Cortices were then dissociated in 20 units/ml papain solution (5.5 mM L- Cysteine hydrochloride, 1.1 mM ethylenediamine tetra-acetic acid [EDTA], 0.067 mM 2-Mercaptoethanol in Minimum Essential Medium [MEM]) for 15 min at 37 °C. Cortices were washed twice by adding 20 ml plating medium (1:50 foetal calve serum, 1:100 penicillin/streptomycin and 1:100 GlutaMax in MEM) followed by cell filtration using a 70 µm cell strainer (Corning, model #352350, Merck, Germany) to obtain a single-cell suspension. Dissociated cells were re-suspended in serum-free Neurobasal medium with Glutamax and B27 supplement (Gibco) and plated on PDL-coated 96 MTPs (Corning #356640). Virus (ssAAV-1/2-hSyn1-hM4D[Gi]_mCherry-WPRE-hGHp[A]) transduction was performed immediately after plating. Cells were maintained at 37 °C (5% CO2 and 10% O2) in a humidified incubator. A half feed medium change was done on DIV8. Final assay conditions used for evaluating activity of compounds were 0.95 × 10^5 cells/cm^2, transduced with 10.000 multiplicity of infection and measured on DIV9.
Medium was removed and cells were incubated in assay buffer (HBSS, Gibco, 10 mM HEPES, pH 7.4) containing 4 µM Fluo-4AM (Thermo Fischer Scientific) and 0.1% Pluronic F-127 (Thermo Fischer Scientific #P3000MP) for 1 h at room temperature in the dark. Loading buffer was then replaced with assay buffer. After 10 min, assay plates were measured in the FLIPR tetra (Molecular Devices, California, USA) using green fluorescence filter settings (excitation 470–495 nm, emission 515–575 nm). Fluorescence signals were recorded at 1 s intervals (0.4 s exposure time). Compound addition was automated in a single addition protocol. Tested compounds (concentrations:0.3 nM–1 µM; retigabine at 30 µM) were added after recording a baseline response for 5 min followed by another 5 min for recording compound effects on Ca^2+ oscillations. Each compound dose was repeated on three individual plates in duplicates.
Time-series raw fluorescence traces recorded from the FLIPR assay were analysed by detecting Ca^2+ peaks based on a fixed amplitude threshold[19]. The change in oscillation frequency was determined by counting the number of peaks in a defined time interval (5 min) before and after addition of the tested compound and calculating the Ca^2+ oscillations frequency from their number. […] For visualisation, all data were transferred to GraphPad Prism 7 (Graphpad Software, Inc., CA, USA).

[2] = target: T2, D1 dopamine receptor (Homo sapiens, UniProt P21728); assay: Off-target radioligand binding; conditions: 10 μM compound
T2 construct: expressed in transfected cells; host or cells: HEK-293 or CHO
T2 sequence (P21728 whole entry): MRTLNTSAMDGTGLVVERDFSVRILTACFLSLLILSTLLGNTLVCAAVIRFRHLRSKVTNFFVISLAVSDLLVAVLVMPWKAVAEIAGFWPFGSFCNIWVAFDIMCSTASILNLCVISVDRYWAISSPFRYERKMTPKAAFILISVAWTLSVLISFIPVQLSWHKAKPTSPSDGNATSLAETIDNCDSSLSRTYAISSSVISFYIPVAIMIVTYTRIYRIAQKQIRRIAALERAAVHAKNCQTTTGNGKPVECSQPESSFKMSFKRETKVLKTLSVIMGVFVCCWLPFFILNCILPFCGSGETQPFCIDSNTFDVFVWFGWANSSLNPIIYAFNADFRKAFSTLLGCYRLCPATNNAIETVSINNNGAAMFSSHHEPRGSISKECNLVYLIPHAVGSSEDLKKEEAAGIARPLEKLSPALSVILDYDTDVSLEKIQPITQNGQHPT

C[N+]1([O-])CCN(C2=Nc3cc(Cl)ccc3Nc3ccccc32)CC1 [CNO, clozapine-N-oxide]
times less potent than CLZ at hM4Di ([1]; ratio of EC50 values): ~20 times
times less potent than Cmpd-21 at hM4Di ([1]; ratio of EC50 values): approximately 2.7 times
EC50 ([1]; reduction of Ca2+ oscillation frequency, hM4Di-transduced rat primary neurons, Hill fit, read-out: half maximal effective concentration (EC50) at hM4Di): 8.1 nM
competitive inhibition of ligand binding [2]: over 50%
